Data published in patent publication US12195427B2, “MASP-2 inhibitors and methods of use” (priority 2018, dated 2025).

Key:
MASP-2 CCP2-SP = MASP-2 CCP2-SP (Homo sapiens (Human), UniProt O00187); test: MASP-2 co-crystallization, X-ray crystallography and structure analysis (H-bonds, van der Waals contacts); parameters: van der Waals contact distance, MASP-2 HIS 483 atom CD2 / van der Waals contact distance, MASP-2 HIS 483 atom NE2 / van der Waals contact distance, SER 654 C to compound atom / van der Waals contact distance, SER 654 O to compound atom / van der Waals contact distance, TRP 655 C to compound atom / van der Waals contact distance, MASP-2 GLY 528 atom CA / van der Waals contact distance TRP 655 atom CZ3 / van der Waals contact distance TRP 655 atom N / van der Waals contact distance TRP 655 atom CE3 / van der Waals contact distance GLY 656 atom C / van der Waals contact distance GLY 656 atom CA / van der Waals contact distance GLY 656 atom O / van der Waals contact distance, MASP-2 TYR 607 atom CD1 / van der Waals contact distance, MASP-2 PRO 606 atom O / d(C3,CA1) / d(CA1,N1)2 / d(H4,O1) / d(H4,O2) / d(O1,O2) / d(CA1,O2) / d(CA6,O1) / d(CA6,O2) / d(CA1,C5) / d(O2,H3) / d(N2,C2) / d(CA5,N2) / d(N2,C4) / d(N2,C6) / d(N2,CA3) / d(N2,O3) / d(O4,H2): unit not given beside the values; details: for van der Waals contact distance, MASP-2 amino acid atom to compound atom: ARG 630;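 for Ligand-pharmacophore element distance, pharmacophore element C2: distance from averaged pharmacophore element to bound ligand; missing value means element absent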;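 for Ligand-pharmacophore element distance, pharmacophore element C3: distance from averaged pharmacophore element to bound ligand; missing value means element absent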;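 for Ligand-pharmacophore element distance, pharmacophore element C4: distance from averaged pharmacophore element to bound ligand; missing value means element absent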;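 for Ligand-pharmacophore element distance, pharmacophore element C5: distance from averaged pharmacophore element to bound ligand; missing value means element absent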
Outline: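 E. coli-expressed CCP2-SP (±6His); apo crystals soaked 1–2× in inhibitor-containing crystallization solution; optional 20% glycerol cryoprotection, LN2 flash-cool; synchrotron data at 1.0 wavelength; MR using 1Q3X portions, partial refinement; single pose analysed when several seen.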

MASP-2 (CCP1-CCP2-SP) = MASP-2 (CCP1-CCP2-SP) (Homo sapiens (Human), UniProt O00187); test: Enzymatic Assay for MASP-2 (fluorogenic substrate); format: biochemical
human α-thrombin = human α-thrombin (Homo sapiens (Human), UniProt P00734); test: Enzymatic Assay for Thrombin (Boc-VPR-AMC); format: biochemical
[1] = Table A5-1 pharmacophore: distance between elements, S2/S1 region
[2] = Table A5-2 pharmacophore distance, S3/S4 region
[3] = Table A7-1, between pharmacophore elements of the bound compound
[4] = Table A7-2, between pharmacophore elements of the bound compound
[5] = Table A8-6, nearest protein atom in cell to the left

MASP-2 CCP2-SP, sequence (O00187 445-686): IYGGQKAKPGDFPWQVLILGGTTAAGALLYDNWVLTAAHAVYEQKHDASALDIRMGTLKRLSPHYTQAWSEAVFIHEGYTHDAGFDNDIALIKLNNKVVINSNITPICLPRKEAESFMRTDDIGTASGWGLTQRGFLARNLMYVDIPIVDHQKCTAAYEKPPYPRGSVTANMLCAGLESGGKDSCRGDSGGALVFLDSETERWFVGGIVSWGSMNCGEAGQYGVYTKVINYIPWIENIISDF
MASP-2 CCP2-SP, sequence (O00187 364-432 partner): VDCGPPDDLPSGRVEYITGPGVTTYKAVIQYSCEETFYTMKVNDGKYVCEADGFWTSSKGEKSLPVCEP
MASP-2 (CCP1-CCP2-SP), sequence (O00187 445-686): as the sequence (O00187 445-686) above

C[C@H](NC(=O)[C@H](N)CCc1cc(Cl)cc(Cl)c1)C(=O)NCc1ccc(C(=N)N)cc1 [compound 1118]
H-bond distance to MASP-2 GLY 656 atom N (MASP-2 CCP2-SP; Table A1 (H-Bonds), GLY 656 N): 3.07
H-bond distance to MASP-2 GLY 656 atom O (MASP-2 CCP2-SP; Table A1 (H-Bonds), GLY 656 O): 2.77
H-bond distance to MASP-2 SER 628 atom OG (MASP-2 CCP2-SP; Table A1 (H-Bonds), SER 628 OG): 3.18
H-bond distance to MASP-2 SER 654 atom O (MASP-2 CCP2-SP; Table A1 (H-Bonds), SER 654 O): 2.88
H-bond distance to MASP-2 SER 657 atom O (MASP-2 CCP2-SP; Table A1 (H-Bonds), SER 657 O): 2.93
van der Waals contact distance, MASP-2 HIS 483 atom CD2 (MASP-2 CCP2-SP; Table A2-1): 3.64
van der Waals contact distance, MASP-2 PHE 529 atom CD1 (MASP-2 CCP2-SP; Table A2-3): 3.52
van der Waals contact distance, MASP-2 TYR 607 atom CA (MASP-2 CCP2-SP; Table A2-4): 3.79
van der Waals contact distance, MASP-2 amino acid atom to compound atom (MASP-2 CCP2-SP; Table A2-9, AA atoms CG, CZ): 3.85
van der Waals contact distance, MASP-2 amino acid atom to compound atom (MASP-2 CCP2-SP; Table A2-9 second part, AA atoms N, NE, NH1): 3.67
van der Waals contact distance, VAL 653 CG1 to compound atom (MASP-2 CCP2-SP; Table A2-11): 3.86
van der Waals contact distance GLY 656 atom C (MASP-2 CCP2-SP; Table A2-13, MASP-2 GLY 656 C): 3.63
van der Waals contact distance TRP 655 atom CZ3 (MASP-2 CCP2-SP; Table A2-13, MASP-2 TRP 655 CZ3): 3.69
van der Waals contact distance TRP 655 atom N (MASP-2 CCP2-SP; Table A2-13, MASP-2 TRP 655 N): 3.76
van der Waals contact distance SER 657 atom C (MASP-2 CCP2-SP; Table A2-14, MASP-2 SER 657 C, columns c12-c13 (inferred)): 3.8
Ligand-pharmacophore element distance, pharmacophore element C2 (MASP-2 CCP2-SP; Table A4-1, element C2): 0
Ligand-pharmacophore element distance, pharmacophore element C3 (MASP-2 CCP2-SP; Table A4-1, element C3): 0
Ligand-pharmacophore element distance, pharmacophore element C4 (MASP-2 CCP2-SP; Table A4-1, element C4): 2.54
Ligand-pharmacophore element distance, pharmacophore element C5 (MASP-2 CCP2-SP; Table A4-1, element C5): 0
Ligand-pharmacophore element distance, pharmacophore element C6 (MASP-2 CCP2-SP; Table A4-1, element C6): 1.17
Ligand-pharmacophore element distance, pharmacophore element C7 (MASP-2 CCP2-SP; Table A4-1, element C7): 0
Ligand-pharmacophore element distance, pharmacophore element CA1 (MASP-2 CCP2-SP; Table A4-1, element CA1): 0.43
Ligand-pharmacophore element distance, pharmacophore element CA2 (MASP-2 CCP2-SP; Table A4-1, element CA2): 0.69
Ligand-pharmacophore element distance, pharmacophore element CA3 (MASP-2 CCP2-SP; Table A4-1, element CA3): 0
Ligand-pharmacophore element distance, pharmacophore element CA4 (MASP-2 CCP2-SP; Table A4-1, element CA4): 0
Ligand-pharmacophore element distance, pharmacophore element CA5 (MASP-2 CCP2-SP; Table A4-1, element CA5): 0
Ligand-pharmacophore element distance, pharmacophore element CA6 (MASP-2 CCP2-SP; Table A4-1, element CA6): 0
d(CA1,N1) (MASP-2 CCP2-SP; [1]): 3.55
d(CA1,O1) (MASP-2 CCP2-SP; [1]): 4.35
d(CA1,O2) (MASP-2 CCP2-SP; [1]): 4.33
d(H4,O1) (MASP-2 CCP2-SP; [1]): 4.85
d(H4,O2) (MASP-2 CCP2-SP; [1]): 4.52
d(O1,O2) (MASP-2 CCP2-SP; [1]): 3.25
d(N2,C4) (MASP-2 CCP2-SP; [2]): 7.40
d(N2,C4)4 (MASP-2 CCP2-SP; [2]): 7.40
d(N2,C6) (MASP-2 CCP2-SP; [2]): 8.27
d(N2,CA2) (MASP-2 CCP2-SP; [2]): 5.84
d(O2,H3) (MASP-2 CCP2-SP; [2]): 5.85
d(O2,N2) (MASP-2 CCP2-SP; [2]): 2.67
a(CA1, O1, O2) (MASP-2 CCP2-SP; Table A6-1 pharmacophore angle): 111.55
a(O1, O2, H4) (MASP-2 CCP2-SP; Table A6-1 pharmacophore angle): 139.63
A(N1, CA1, O1) a) (MASP-2 CCP2-SP; Table A6-1 pharmacophore angle, all compounds with protonatable center N1 except Methyl-amino-pyridine): 162.73
a(O1, O2, H3) (MASP-2 CCP2-SP; Table A6-2 pharmacophore angle): 152.79
a(O1, O2, N2) (MASP-2 CCP2-SP; Table A6-2 pharmacophore angle): 137.47
a(O2, N2, C4) (MASP-2 CCP2-SP; Table A6-2 pharmacophore angle): 162.84
a(O2, N2, C4) 2 (MASP-2 CCP2-SP; Table A6-2 pharmacophore angle): 125.21
a(O2, N2, C6) (MASP-2 CCP2-SP; Table A6-2 pharmacophore angle): 88.59
a(O2, N2, CA2) (MASP-2 CCP2-SP; Table A6-2 pharmacophore angle): 154.60
Pharmacophore torsion angle a(H4, O1, O2, H3) (MASP-2 CCP2-SP; [3]): 38.74
Pharmacophore torsion angle a(H4, O1, O2, N2) (MASP-2 CCP2-SP; [3]): 128.20
Pharmacophore torsion angle a(N1, CA1, O2, H4) (MASP-2 CCP2-SP; [3]): −132.91
Pharmacophore torsion angle a(O1, H4, O2, CA1) (MASP-2 CCP2-SP; [3]): −65.17
Pharmacophore torsion angle a(O1, O2, N2, C6) (MASP-2 CCP2-SP; [4]): 150.07
Pharmacophore torsion angle a(O1, O2, N2, CA2) (MASP-2 CCP2-SP; [4]): 145.00
Pharmacophore protein distance to MET_658 (first MET_658 column) (MASP-2 CCP2-SP; Table A8-6, 6th residue column, nearest protein atom in cell to the left): 1.45
Pharmacophore protein distance to MET_658 (second MET_658 column) (MASP-2 CCP2-SP; Table A8-6, 9th residue column, nearest protein atom in cell to the left): 3.28
Pharmacophore protein distance to GLY_528 (MASP-2 CCP2-SP; [5]): 3.82
Pharmacophore protein distance to PHE_529 (MASP-2 CCP2-SP; [5]): 3.01
Pharmacophore protein distance to PRO_608 (MASP-2 CCP2-SP; [5]): 4.83
Pharmacophore protein distance to SER_611 (MASP-2 CCP2-SP; [5]): 3.12
Pharmacophore protein distance to TRP_655 (MASP-2 CCP2-SP; Table A8-6, pharmacophore elements C6, CA3, O3, H1, nearest protein atom in cell to the left): 3.71
Ki (MASP-2 (CCP1-CCP2-SP)): < 500 nM
Ki (human α-thrombin): < 500 nM
